From PMC8584173, “The Cytotoxic Effect of Copper (II) Complexes with Halogenated 1,3-Disubstituted Arylthioureas on Cancer and Bacterial Cells” (International Journal of Molecular Sciences, 2021)

Tests used:
[1] = tested on: Bacillus subtilis H17 (rec+); experiment: Bacillus subtilis rec-assay, H17; format: cell-based; details: B. subtilis H17; 256 µg per disc (NOQ 2 µg per disc)
Method: DNA-damaging activity of compounds was tested by rec-assay using two genetically modified Bacillus subtilis strains: M45 (rec^−) and H17 (rec^+). Tested compounds were dissolved in DMSO, and 10 µL of each solution was dripped onto sterile cotton discs (Rotilabo) to load 256 µg of a given compound per 9 mm disc. Discs were placed on the surface nutrient agar plates (Difco), inoculated with 100 µL of bacterial overnight culture and incubated […] at 35 °C. After incubation, the growth inhibition zones were measured. […] Results of the genotoxicity test were estimated after 18 h of incubation at 35 °C by comparing the diameter of the inhibition zone on the B. subtilis M45 (rec^−) strain with that on the B. subtilis H17 (rec^+) strain.

[2] = tested on: S. epidermidis ATCC 35984; experiment: MIC, twofold serial microdilution; format: cell-based, Staphylococcus epidermidis; details: S. epidermidis ATCC 35984, 18 h, 35 °C
Method: (§1) The antimicrobial activity of the compounds was tested on Gram-positive bacteria (Staphylococcus aureus NCTC 4163, Staphylococcus aureus ATCC 25923, Staphylococcus aureus ATCC 6538, Staphylococcus aureus ATCC 29213, Staphylococcus epidermidis ATCC 12228, Staphylococcus epidermidis ATCC 35984), Gram-negative rods (Escherichia coli ATCC 10538, Escherichia coli ATCC 25922, Pseudomonas aeruginosa ATCC 15442, Pseudomonas aeruginosa ATCC 27863) and yeasts (Candida albicans ATCC 10231, Candida albicans ATCC 90028, Candida parapsilosis ATCC 22019). Hospital methicillin-resistant strains of Staphylococcus aureus and Staphylococcus epidermidis were obtained from the collection of the Department of Pharmaceutical Microbiology, Medical University of Warsaw, Poland.
(§2) Antifungal activities were assessed using Mueller–Hinton agar + 2% glucose and 0.5 µg/mL methylene blue dye medium. Sterile filter paper discs (9 mm diameter, Whatman Number 3 chromatography paper) were dripped with tested compound solutions (in dimethylsulfoxide, DMSO) to load 400 μg of a given compound per disc. Dry discs were placed on the surface of appropriate agar medium. The results (diameter of the growth inhibition zone) were read after 18 h of incubation at 35 °C. Minimal inhibitory concentration (MIC) was tested by the twofold serial microdilution method (in 96-well microtiter plates) using Mueller–Hinton broth medium (Beckton Dickinson) for bacteria or RPMI-1640 medium for Candida species, according to CLSI guidelines. The stock solution of tested agent was prepared in DMSO and diluted in sterile water. […] The final inoculum of all studied microorganisms was 10^5 CFU/ mL^−1 (colony forming units per ml). Minimal inhibitory concentrations (the lowest concentration of a tested agent that prevents visible growth of a microorganism) were read after 18 h (bacteria) or 24 h (yeasts) of incubation at 35 °C.

[3] = tested on: S. epidermidis ATCC 12228; experiment: MIC, twofold serial microdilution; format: cell-based, Staphylococcus epidermidis; details: S. epidermidis ATCC 12228, 18 h, 35 °C
Method: as §1, §2

[4] = tested on: P. aeruginosa ATCC 27853; experiment: MIC, twofold serial microdilution; format: cell-based, Pseudomonas aeruginosa; details: P. aeruginosa ATCC 27853, 18 h, 35 °C
Method: as §1, §2

[5] = tested on: P. aeruginosa ATCC 15442; experiment: MIC, twofold serial microdilution; format: cell-based, Pseudomonas aeruginosa; details: P. aeruginosa ATCC 15442, 18 h, 35 °C
Method: as §1, §2

[6] = tested on: HaCaT (human immortal keratinocyte cell line); experiment: MTT cytotoxicity assay, HaCaT; format: cell-based; details: HaCaT normal cells, 72 h
Method: The human primary (SW480), metastatic (SW620) colon cancer, metastatic prostate cancer (PC3) and human immortal keratinocyte (HaCaT) cell lines were purchased from the American Type Culture Collection (ATCC, Rockville, USA). The cells were cultured in medium according to protocols (MEM for SW480 and SW620, RPMI 1640 for PC3 and DMEM for HaCaT cells) supplemented with 10% fetal bovine serum (FBS), penicillin (100 U/mL) and streptomycin (100 μg/mL) and cultured in 37 °C/ 5% CO2 humidified incubator. The cells were cultured until appropriate confluence was achieved (80–90%). Next, they were harvested by treatment with 0.25% trypsin (Gibco Life Technologies, USA) and used for studies.
Cells without studied compounds in medium were used as a control.
The cell viability was assessed by determination of MTT salt (3-(4,5-dimethylthiazol-2-yl)-2,5-diphenyltetrazolium bromide) conversion by mitochondrial dehydrogenase. MTT assay was performed as previously described. Experiments were repeated three times. Cell viability was presented as a percentage of MTT reduction in the treated cells versus the control cells. Number of viable cells cultured without studied compounds was assumed to be 100%. Decreased relative MTT level means decreased cell viability. Thiourea complexes with the highest cytotoxic potential assessed by MTT determination (with the lowest IC50) were chosen for subsequent assessments of cytotoxicity mechanisms.

[7] = tested on: C. parapsilosis ATCC 22019; experiment: MIC, twofold serial microdilution; format: cell-based, Candida parapsilosis; details: C. parapsilosis ATCC 22019, 24 h, 35 °C
Method: as §1, §2

[8] = tested on: C. albicans ATCC 10231; experiment: MIC, twofold serial microdilution; format: cell-based, Candida albicans; details: C. albicans ATCC 10231, 24 h, 35 °C
Method: as §1, §2

[9] = tested on: C. albicans ATCC 90028; experiment: MIC, twofold serial microdilution; format: cell-based, Candida albicans; details: C. albicans ATCC 90028, 24 h, 35 °C
Method: as §1, §2

[10] = tested on: S. epidermidis 432; experiment: MIC, hospital MRSE strain; format: cell-based, Staphylococcus epidermidis; details: hospital MRSE S. epidermidis 432
Method: as §1, §2

[11] = tested on: S. epidermidis 513; experiment: MIC, hospital MRSE strain; format: cell-based, Staphylococcus epidermidis; details: hospital MRSE S. epidermidis 513
Method: as §1, §2

[12] = tested on: S. epidermidis 515; experiment: MIC, hospital MRSE strain; format: cell-based, Staphylococcus epidermidis; details: hospital MRSE S. epidermidis 515
Method: as §1, §2

[13] = tested on: S. epidermidis 423; experiment: MIC, hospital MRSE strain; format: cell-based, Staphylococcus epidermidis; details: hospital MRSE S. epidermidis 423
Method: as §1, §2

[14] = tested on: S. epidermidis 433; experiment: MIC, hospital MRSE strain; format: cell-based, Staphylococcus epidermidis; details: hospital MRSE S. epidermidis 433
Method: as §1, §2

[15] = tested on: S. epidermidis 511; experiment: MIC, hospital MRSE strain; format: cell-based, Staphylococcus epidermidis; details: hospital MRSE S. epidermidis 511
Method: as §1, §2

[16] = tested on: S. epidermidis 510; experiment: MIC, hospital MRSE strain; format: cell-based, Staphylococcus epidermidis; details: hospital MRSE S. epidermidis 510
Method: as §1, §2

[17] = tested on: S. epidermidis 431; experiment: MIC, hospital MRSE strain; format: cell-based, Staphylococcus epidermidis; details: hospital MRSE S. epidermidis 431
Method: as §1, §2

[18] = tested on: S. epidermidis 420; experiment: MIC, hospital MRSE strain; format: cell-based, Staphylococcus epidermidis; details: hospital MRSE S. epidermidis 420
Method: as §1, §2

Structure (SMILES)	inhibition zone diameter [1] [mm]	MIC [2] [µg/mL]	MIC [3] [µg/mL]	MIC [4] [µg/mL]	MIC [5] [µg/mL]	IC50 [6] [µM]	MIC [7] [µg/mL]	MIC [8] [µg/mL]	MIC [9] [µg/mL]	MIC [10] [µg/mL]	MIC [11] [µg/mL]	MIC [12] [µg/mL]	MIC [13] [µg/mL]	MIC [14] [µg/mL]	MIC [15] [µg/mL]	MIC [16] [µg/mL]	MIC [17] [µg/mL]	MIC [18] [µg/mL]
O=[N+]([O-])c1cc([N+]2=C(Nc3ccccc3Br)[S][Cu-2]23[S]C(Nc2ccccc2Br)=[N+]3c2ccc(Cl)c([N+](=O)[O-])c2)ccc1Cl [Compound 1, Copper (II) complex with 1-(2-bromophenyl)-3-(4-chloro-3-nitrophenyl)thiourea]	12	8	16	128	128	110 ± 3.4	≥256	≥256	≥256	8	8	4	8	4	8	8	8	4
O=[N+]([O-])c1cc([N+]2=C(Nc3cccc(Br)c3)[S][Cu-2]23[S]C(Nc2cccc(Br)c2)=[N+]3c2ccc(Cl)c([N+](=O)[O-])c2)ccc1Cl [Compound 2, Copper (II) complex with 1-(3-bromophenyl)-3-(4-chloro-3-nitrophenyl)thiourea]	17	16	16	128	128	167 ± 2.3	64	64	64	8	8	8	8	8	8	8	8	8
O=[N+]([O-])c1cc([N+]2=C(Nc3ccc(Br)cc3)[S][Cu-2]23[S]C(Nc2ccc(Br)cc2)=[N+]3c2ccc(Cl)c([N+](=O)[O-])c2)ccc1Cl [Compound 3, Copper (II) complex with 1-(4-bromophenyl)-3-(4-chloro-3-nitrophenyl)thiourea]	15	16	16	128	128	103 ± 3.2	64	64	64	4	4	8	4	4	4	4	4	8
O=[N+]([O-])c1cc([N+]2=C(Nc3ccc(F)c(Cl)c3)[S][Cu-2]23[S]C(Nc2ccc(F)c(Cl)c2)=[N+]3c2ccc(Cl)c([N+](=O)[O-])c2)ccc1Cl [Compound 4, Copper (II) complex with 1-(3-chloro-4-fluorophenyl)-3-(4-chloro-3-nitrophenyl)thiourea]	16	4	4	128	128	121 ± 5.2	64	128	128	8	8	4	4	4	4	8	8	4
O=[N+]([O-])c1cc([N+]2=C(Nc3ccc(Cl)c(Cl)c3)[S][Cu-2]23[S]C(Nc2ccc(Cl)c(Cl)c2)=[N+]3c2ccc(Cl)c([N+](=O)[O-])c2)ccc1Cl [Compound 5, Copper (II) complex with 1-(4-chloro-3-nitrophenyl)-3-(3,4-dichlorophenyl)thiourea]	17	32	32	128	128	165 ± 4.7	64	128	128	32	16	32	32	32	32	16	16	32
O=[N+]([O-])c1cc(NC2=[N+](c3ccc(Cl)c([N+](=O)[O-])c3)[Cu-2]3([S]2)[S]C(Nc2ccc(Cl)c([N+](=O)[O-])c2)=[N+]3c2ccc(Cl)c([N+](=O)[O-])c2)ccc1Cl [Compound 6, Copper (II) complex with 1,3-bis(4-chloro-3-nitrophenyl)thiourea]	16	8	8	128	128	123 ± 2.1	64	64	64	64	64	64	64	64	64	64	64	64
